PMC6332165, “Study of the Relationships between the Structure, Lipophilicity and Biological Activity of Some Thiazolyl-carbonyl-thiosemicarbazides and Thiazolyl-azoles” (Molecules, 2015)

Experiments:
[1] = Lipophilicity by reversed-phase thin-layer chromatography (RP-TLC), isopropanol-water mobile phase; format: physicochemical; details: RP-18F254s TLC, iso-propanol-water 45-65% (v/v); for RM0 (lipophilicity estimation parameter, intercept of RM = RM0 + bC): extrapolated to pure water
Description: Some of the parameters resulting from a RP-TLC may be associated to the lipophilic character of the analytes. The retention parameters (RM) are calculated by means of well-known Batte-Smith and Westall Equation (1): RM = log (1/RF − 1) (1)
Generally, the RM values determined by RP-TLC are linearly dependent on the concentration of the organic modifier (C) in the mobile phase Equation (2): RM = RM0 + bC (2) where b and RM0 are, respectively, the slope and the intercept of Equation (2). […] Additionally, it has been stated that not only the RM0, but also the slope, b, as a characteristic of the specific hydrophobic surface area of the compounds, can be used as an estimation of lipophilicity. The advantages of TLC methods consist in the small quantity of compounds needed for the determination, and the rapidity and simplicity of the method. Also, they are inexpensive, rapid and easy to perform.
Chromatography was performed on 20 × 20 cm RP-18F254s TLC precoated silica plates (Merck; Darmstadt, Germany). Solutions (1 mg/mL) of the tested compounds were prepared in iso-propanol, and 3 μL aliquots were spotted in duplicate on the plates by hand, 10 mm from the bottom edge and 20 mm apart. The mobile phases were composed of the iso-propanol-water binary mixtures, with a varying content of organic modifier between 45% and 65% (v/v) in 5% increments, as the study compounds differed considerably in their retention. Chromatography was performed in a normal developing chamber at room temperature, the developing distance being 10 cm. The chromatography chamber was saturated with the mobile phase for 30 min before use. After the development (30–60 min), the plates were air dried at room temperature and examined under a UV lamp (λ = 254 nm), and the RF (retardation factor) values were measured manually by a digital caliper. The experiments were performed in triplicate.

[2] = test system: turpentine oil-induced inflammation; set-up: method as in PMID 23504664; Leukocytes (L, leukocytes count):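 lower leukocyte count means stronger anti-inflammatory effect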; details: cited from earlier work; for Leukocytes (L, leukocytes count) / PMN (polymorphonuclear leukocytes, differential leucocyte count): mean ± SD
phagocytes = test system: phagocytes; set-up: method as in PMID 23504664; details: turpentine oil-induced inflammation, mean ± SD; cited from earlier work
[3] = test system: nitric oxide (NO) synthesis; set-up: method as in PMID 23504664; unit not given here; details: turpentine oil-induced inflammation, mean ± SD; cited from earlier work
oxidative stress = test system: oxidative stress; set-up: method as in PMID 23504664; details: turpentine oil-induced inflammation, mean ± SD; cited from earlier work

| b (slope of RM = RM0 + bC, specific hydrophobic surface area) [1] | RM0 (lipophilicity estimation parameter, intercept of RM = RM0 + bC) [1] | Structure (SMILES) | Leukocytes (L, leukocytes count) [2] | PMN (polymorphonuclear leukocytes, differential leucocyte count) [2] [%] | PA (phagocytic activity) (phagocytes) | PI (phagocytosis index) (phagocytes) [%] | NO (nitric oxide synthesis) [3] | OSI (oxidative stress index) (oxidative stress) | TAR (total antioxidant response) (oxidative stress) | TOS (total oxidative status) (oxidative stress) | anti-inflammatory and antioxidant effects (in words) ([2]; overall ranking within the series) |
| --- | --- | --- | --- | --- | --- | --- | --- | --- | --- | --- | --- |
| −2.905 | 1.664 | C=CCn1c(S)nnc1-c1sc(-c2ccccc2)nc1C [Th-15] | 9982.5 ± 81 | 77.4 ± 5.1 | 29 ± 3.2 | 24 ± 4.3 | 71.630 ± 5.9 | 6.32 ± 4.4 | 1.094 ± 0.006 | 69.171 ± 4.4 | – |
| −1.286 | 0.620 | Cc1nc(-c2ccccc2)sc1-c1nnc(S)s1 [Th-21] | 3000 ± 241 | 52.6 ± 2.1 | 23 ± 1.9 | 14.5 ± 4.6 | 43.737 ± 6.2 | 6.03 ± 4.5 | 1.114 ± 0.007 | 67.137 ± 10.6 | best anti-inflammatory and antioxidant effects |
| −2.962 | 1.783 | C=CCn1c(S)nnc1-c1sc(-c2ccc(C)cc2)nc1C [Th-16] | 9225 ± 333 | 77.4 ± 1.9 | 27 ± 1.1 | 21.2 ± 1.0 | 63.091 ± 5.1 | 6.04 ± 4.1 | 1.103 ± 0.009 | 66.681 ± 9.1 | – |
| −1.227 | 0.701 | Cc1ccc(-c2nc(C)c(-c3nnc(S)s3)s2)cc1 [Th-22] | 5812.5 ± 399 | 66.4 ± 0.8 | 23.5 ± 0.9 | 35 ± 8.2 | 52.08 ± 8.1 | 5.13 ± 4.9 | 1.105 ± 0.001 | 56.694 ± 7.9 | – |
| −1.134 | 0.286 | Cc1ccc(-c2nc(C)c(-c3nnc(S)o3)s2)cc1 [Th-19] | 7443.75 ± 1172 | 72.8 ± 5.0 | 13.5 ± 2.78 | 20 ± 1.5 | 45.198 ± 2.2 | 7.13 ± 5.9 | 1.119 ± 0.009 | 79.849 ± 12 | – |
| −4.737 | 2.808 | C=CCn1c(S)nnc1-c1sc(-c2ccc(Br)cc2)nc1C [Th-17] | 10,147.5 ± 528 | 75.4 ± 5.2 | 19.5 ± 0.9 | 15 ± 3.5 | 60.479 ± 11.8 | 6.38 ± 5.2 | 1.093 ± 0.003 | 69.962 ± 5.2 | – |

More lines, now with the values behind:

| Structure (SMILES) | b (slope of RM = RM0 + bC, specific hydrophobic surface area) [1] | RM0 (lipophilicity estimation parameter, intercept of RM = RM0 + bC) [1] | Leukocytes (L, leukocytes count) [2] | PMN (polymorphonuclear leukocytes, differential leucocyte count) [2] [%] | PA (phagocytic activity) (phagocytes) | PI (phagocytosis index) (phagocytes) [%] | NO (nitric oxide synthesis) [3] | OSI (oxidative stress index) (oxidative stress) | TAR (total antioxidant response) (oxidative stress) | TOS (total oxidative status) (oxidative stress) | anti-inflammatory and antioxidant effects (in words) ([2]; overall ranking within the series) |
| --- | --- | --- | --- | --- | --- | --- | --- | --- | --- | --- | --- |
| Cc1nc(-c2ccccc2)sc1-c1nnc(S)n1C [Th-12] | −2.463 | 1.305 | 8456.25 ± 565 | 78.6 ± 1.0 | 20 ± 1.5 | 22.5 ± 3.5 | 70.029 ± 6.4 | 8.27 ± 4.2 | 1.095 ± 0.004 | 90.592 ± 4.2 | – |
| Cc1ccc(-c2nc(C)c(C(=O)NNC(=S)Nc3ccccc3)s2)cc1 [Th-2] | −2.853 | 1.595 | 6543 ± 271 | 60.6 ± 3.1 | 22.5 ± 2.8 | 21.5 ± 2.8 | 51.827 ± 6.3 | 5.76 ± 5.3 | 1.099 ± 0.003 | 63.265 ± 5.4 | – |
| Cc1nc(-c2ccc(Br)cc2)sc1-c1nnc(S)n1C [Th-14] | −2.659 | 1.630 | 10,172 ± 520 | 75.4 ± 4.5 | 23.5 ± 0.9 | 28 ± 2.1 | 86.04 ± 2.9 | 6.1 ± 4.7 | 1.097 ± 0.006 | 66.876 ± 9.7 | – |
| Cc1ccc(-c2nc(C)c(-c3nnc(S)n3-c3ccccc3)s2)cc1 [Th-10] | −2.948 | 1.754 | 5606.25 ± 154 | 61.2 ± 3.4 | 23 ± 1.1 | 20.5 ± 0.9 | 65.142 ± 5.3 | 4.95 ± 5.4 | 1.095 ± 0.003 | 54.164 ± 5.4 | – |
| Cc1nc(-c2ccccc2)sc1C(=O)NNC(=S)Nc1ccccc1 [Th-1] | −2.627 | 1.369 | 5587.5 ± 455 | 60.4 ± 4.1 | 18.5 ± 1.8 | 21.5 ± 4.6 | 50.479 ± 5.7 | 4.66 ± 2.2 | 1.108 ± 0.003 | 51.622 ± 6.2 | – |
| Cc1nc(-c2ccc(Br)cc2)sc1-c1nnc(S)n1-c1ccccc1 [Th-11] | −3.133 | 2.020 | 11,137.5 ± 483 | 86.4 ± 2.6 | 19.75 ± 2.4 | 21 ± 1.1 | 66.799 ± 5.9 | 6.08 ± 4.9 | 1.092 ± 0.003 | 66.394 ± 8.9 | – |
| CNC(=S)NNC(=O)c1sc(-c2ccccc2)nc1C [Th-4] | −2.355 | 0.986 | 12,218.8 ± 1341 | 82.8 ± 4.1 | 29 ± 1.8 | 22.5 ± 3.5 | 47.501 ± 2.8 | 4.49 ± 3.6 | 1.109 ± 0.006 | 49.823 ± 3.6 | – |
| Cc1ccc(-c2nc(C)c(-c3nnc(S)n3C)s2)cc1 [Th-13] | −2.672 | 1.565 | 10,172 ± 331 | 80.8 ± 3.0 | 27.5 ± 0.9 | 25.5 ± 2.8 | 75.451 ± 6.9 | 4.63 ± 3.6 | 1.1 ± 0.012 | 50.886 ± 5.6 | – |
| Cc1nc(-c2ccc(Br)cc2)sc1C(=O)NNC(=S)Nc1ccccc1 [Th-3] | −2.739 | 1.600 | 4987 ± 133 | 63.6 ± 3.9 | 31 ± 1.8 | 21.5 ± 0.9 | 52.838 ± 8.9 | 3.62 ± 2.9 | 1.095 ± 0.003 | 39.601 ± 7.9 | – |
